Results taken from patent US20250332167A1, “PHARMACEUTICAL USE OF CDK 4/6 INHIBITOR” (priority 2021, published 2025).
Values joined by “and” are separate entries in the source; they are usually repeats but may differ in a detail not shown here. Equal entries are not always repeated. “Also recorded” adds a separate entry of the source.

Columns and labels:
NCI-H1975 xenograft = assay: Human non-small cell lung cancer NCI-H1975 xenograft mouse model; type: in vivo, Balb/c nude mice; conditions: for T/C / TGI / Tumor relative volume (x ± S) / Tumor volume (x ± S): 16 days after administration; for Body weight change: Day 20 of treatment
Excerpt: (§1) The formula for calculating tumor volume was: Tumor Volume (mm^3)=½×(a×b^2) (where “a” represents the long diameter and “b” represents the short diameter).
(§2) The relative tumor growth rate (T/C) is the percentage value of the relative tumor volume or weight between the treatment group and the control group at a certain time point. The calculation formula is as follows: • T/C(%)=TRTV/CRTV×100% (TRTV: Average RTV of the treatment group; CRTV: Average RTV of the Vehicle group; RTV=Vt/V0, where V0 is the tumor volume of the animal at the time of grouping and Vt is the tumor volume of the animal after treatment).
(§3) (T and C are the relative tumor volume (RTV) or weight (TW) of the treatment group and control group at a specific time point, respectively).
NCI-H1975 cells were cultured in RPMI1640 medium containing 10% fetal bovine serum. Log-phase NCI-H1975 cells were collected, suspended in PBS to an appropriate concentration, and used for subcutaneous tumor implantation in Balb/c nude mice. Each female mouse was implanted with 0.1 ml of NCI-H1975 cells subcutaneously. When the average tumor volume reached 171 mm^3, the mice were randomly divided into groups based on tumor size.
The positive control drugs were Palbociclib and Abemaciclib.
Each group consisted of 8 mice, and oral gavage administration was performed once daily for a total of 21 days. Tumor volume and body weight changes were observed regularly, and efficacy evaluation was conducted based on relative tumor proliferation rate (T/C) and relative tumor growth inhibition rate (TGI). The calculation methods for tumor volume, T/C, and TGI are described in Example 3.

U118MG cells = assay: Proliferation inhibition of human glioblastoma cells U118MG (DAPI cell count, 72 h); type: cell-based; conditions: U-118-MG, 72 h treatment
Protocol: Human glioblastoma cell U118MG was purchased from NANJING COBIOER BIOSCIENCES CO., LTD. […] The cell detection equipment used was the In Cell Analyzer 2200 (GE Healthcare).
With 60 μM as the initial concentration, ten points were obtained by serial five-fold dilution.
Medium for U118 MG is the MEM (low glucose) medium supplemented with 10% FBS, 1% penicillin/streptomycin, 1% sodium pyruvate, and 1% MEM NEAA. U118 MG cells were seeded at a density of 4000 cells/100 μL/well in a 96-well black clear-bottom plate and incubated at 37° C. overnight. The plate was then taken, and 20 μL of the prepared diluted samples was added to the wells. The cells were treated at 37° C. for 72 hours. After 72 hours, the plate was taken, and a neutral formaldehyde fixation solution (formaldehyde:PBS=1:9) was added at 50 μL/well. The cells were fixed at room temperature for 10-30 minutes. The wells were washed twice with 1× PBS (100 μL/well), and then permeabilized with 0.2% Triton™-X100 for 5-10 minutes (100 μL/well). […] The plate was scanned by using an In Cell Analyzer, and the number of cells in each well was analyzed. The inhibition rate of each compound at various concentration points was calculated by using the formula provided. The IC50 values were determined by curve fitting using GraphPad Prism 6.0 software.

NCI-H2228 xenograft = assay: Human non-small cell lung cancer NCI-H2228 xenograft mouse model; type: in vivo, mice
Excerpt: as §1, §2, §3
Human non-small cell lung cancer cells NCI-H2228 were cultured in RPMI-1640 medium containing 10% fetal bovine serum. Log-phase NCI-H2228 cells were collected, suspended in PBS to an appropriate concentration, and mixed with extracellular matrix gel in a 1:1 ratio for subcutaneous tumor implantation in mice. Twenty female mice were subcutaneously implanted with NCI-H2228 cells on the right side. The cells were suspended in PBS and mixed evenly with matrix gel in a 1:1 ratio (0.1 ml per mouse). When the average tumor volume reached 143 mm^3, the mice were randomly divided into groups based on tumor size. The groups received either the solvent or Compound A from Example 1 (50 mg/kg), administrated by oral intragastric administration once a day for 28 days. Tumor volume and body weight changes were regularly observed. All animals were euthanized on day 50 after cell inoculation. The tumors were weighed and photographed. The calculation methods for tumor volume, relative tumor growth rate (T/C), and tumor growth inhibition rate (TGI) were shown in Example 3.

[1] = 10 mg/kg oral gavage once daily
[2] = 25 mg/kg oral gavage once daily
[3] = 50 mg/kg oral gavage once daily
[4] = 50 mg/kg oral once a day for 28 days, day 50 post-implantation
[5] = 50 mg/kg oral once a day, treatment period

In the case of `CC1=Nc2c(F)cc(-c3nc(Nc4ccc(C5CCN(C)CC5)cn4)ncc3F)cc2C12CCCC2.O=C(O)/C=C/C(=O)O` [Compound A, Fumarate salt of 5-fluoro-4-(7′-fluoro-2′-methylspiro[cyclopentane-1,3′-indol]-5′-yl)-N-(5-(1-methylpiperidin-4-yl)pyridin-2-yl)pyrimidine-2-amine], the T/C (NCI-H1975 xenograft; 5 mg/kg oral gavage once daily) is reported as 85%, the TGI (NCI-H1975 xenograft; 5 mg/kg oral gavage once daily) is reported as 15% and the “Tumor relative volume (x ± S)” value (NCI-H1975 xenograft; 5 mg/kg oral gavage once daily) is reported as 9.8 ± 0.6. The “Tumor volume (x ± S)” value (NCI-H1975 xenograft; 5 mg/kg oral gavage once daily) was 1889 mm^3 and 1889 ± 60 mm^3, the T/C (NCI-H1975 xenograft; [1]) was 72% and the TGI (NCI-H1975 xenograft; [1]) was 28%. For the same compound, the “Tumor relative volume (x ± S)” value (NCI-H1975 xenograft; [1]) was 8.4 ± 1.0, the “Tumor volume (x ± S)” value (NCI-H1975 xenograft; [1]) was 1647 mm^3 and 1647 ± 243 mm^3 and the T/C (NCI-H1975 xenograft; [2]) was 50%. The TGI (NCI-H1975 xenograft; [2]) was 50%, the “Tumor relative volume (x ± S)” value (NCI-H1975 xenograft; [2]) was 5.8 ± 0.3 and the “Tumor volume (x ± S)” value (NCI-H1975 xenograft; [2]) was 1141 mm^3 and 1141 ± 112 mm^3. For the same compound, the Body weight change (NCI-H1975 xenograft; [2]) was “slight decrease in body weight”, the T/C (NCI-H1975 xenograft; [3]) was 31% and the TGI (NCI-H1975 xenograft; [3]) was 69%. For the same compound, the “Tumor relative volume (x ± S)” value (NCI-H1975 xenograft; [3]) was 3.6 ± 0.2, the “Tumor volume (x ± S)” value (NCI-H1975 xenograft; [3]) was 709 mm^3 and 709 ± 47 mm^3 and the Body weight change (NCI-H1975 xenograft; [3]) was “slight decrease in body weight”. It also gave an IC50 (U118MG cells) of 0.0232 ± 0.0052 µM, a T/C (NCI-H2228 xenograft; [4]) of 64% and a TGI (NCI-H2228 xenograft; [4]) of 36%. The “Tumor relative volume (x ± SEM)” value (NCI-H2228 xenograft; [4]) was 3.38 ± 0.23, the “Tumor volume (x ± SEM)” value (NCI-H2228 xenograft; [4]) was 506.53 mm^3 and the “Tumor volume (x ± SEM)” value (NCI-H2228 xenograft; 50 mg/kg oral once a day for 28 days, day 50 post-implantation, listed as CompoundA) was 506.53 ± 44.73 mm^3. The Body weight change (NCI-H2228 xenograft; [5]) was “slight weight loss” and the “Tolerability / adverse effects” value (NCI-H2228 xenograft; [5]) was “good tolerability; also recorded: no obvious adverse effects”.
